Data on three compounds can be found in patent publication US7304073B2, “Method of treating myocardial ischemia-reperfusion injury using NF-kB inhibitors” (Wyeth, priority 2004, dated 2007).

“Also recorded” adds a separate entry of the source.

The melting point is the temperature of the solid-liquid transition.

Series [1] has as its system myocardial ischemia-reperfusion models. As to conditions: cited from earlier work.
The subject of series [2] is Adult ovariectomized female Sprague Dawley rats. Description: In vivo rat heart ischemia-reperfusion (left coronary artery occlusion), infarct size. The procedure:
A rat in vivo model was used to evaluate effects of experimental compounds on ischemia-reperfusion in the left ventricle. Adult ovariectomized female Sprague Dawley rats (>6 weeks) were used. All experimental procedures were performed under general anesthesia with a combination of ketamine and xylazine. Rats were placed on a heating pad and ventilated using a rodent ventilator. The chest was clipped free of hair, disinfected with Betadine and rinsed with alcohol. A small incision was made through skin and underlying muscles between 4th and 5th ribs in the left chest. The ribs were gently spread and the heart was exposed. A surgical suture was placed under the left coronary artery. The artery was occluded by tightening the suture for 30 minutes to induce myocardial ischemia and then re-opened for the 2 hour reperfusion period. […] At the end of reperfusion, hearts were harvested, perfused with Evans Blue, sectioned and stained with 2,3,5-triphenyltetrazolium chloride. Each section was digitally imaged. Infarct size and area at risk were measured and statistically analyzed.

In series [3] the test system is uterus or breast. Description: Activity in the uterus or breast. Particulars: in contrast to the known effects of 17β-estradiol.
Series [4] deals with Ovariectomized female New Zealand White rabbits. Nature of the series: In vivo rabbit heart ischemia-reperfusion (left anterior descending coronary artery occlusion), infarct size. Here is the method: Ovariectomized female New Zealand White rabbits were anesthetized with a mixture of xylazine (3 mg/kg) and ketamine (35 mg/kg) administered IM, followed by an IV injection of sodium pentobarbital (15 mg/kg). An endotracheal tube was inserted and animals were positive pressure ventilated with room air. A Millar catheter micro-tip pressure transducer was inserted through the left carotid artery and positioned above the aortic valves to monitor aortic blood pressure. A lead II electrocardiogram was monitored throughout the experiment. A left thoracotomy and pericardiotomy were performed. […] A silk suture was passed behind the left anterior descending coronary artery and secured against polyethylene tubing for 30 minutes (ischemic period). Regional myocardial ischemia was verified by cyanosis in the region of the occluded vessel and by ST-segment elevation like changes in the electrocardiogram. The hearts were then reperfused for 4 hours.
To determine infarct size the heart was removed, cannulated through the aorta and perfused with Krebs-Henseleit buffer followed by perfilsion with 1% triphenyltetrazolium chloride (TTC). The left anterior descending coronary artery was re-occluded with a suture and 0.25% Evans Blue was perfused through the heart. The heart was cut into transverse sections and the area of the left ventricle, area at risk and the infarct area were traced and analyzed using Adobe PhotoShop Software. The infarct size is expressed as a percentage of the area at risk.

Series [5] has as its system perfused isolated male rat hearts. Nature of the series: Isolated rat heart ischemia-reperfusion (Langendorff perfusion). The procedure: Male rats 3 months old were anesthetized with sodium-pentobarbital and hearts were removed and mounted on a Langendorff apparatus. In this paradigm isolated hearts were perfused through an aortic cannula with a modified Krebs-Henseleit buffer equilibrated with 95% O2 and 5% CO2 at a constant pressure of 58 mmHg. Hearts were maintained at 37° C. throughout the experiments and temperature was continuously monitored with an IT-18 thermocouple microprobe inserted into the left ventricle (PhysiTemp, Clifton, N.J.). Flow rate was monitored with a flow probe and small animal flow meter (T206) from Transonic Systems Incorporated, Ithaca, N.Y. Hearts were perfused for 5 minutes with no additions followed by perfusion with vehicle or test compound which were continuously perfused throughout the remaining steps of the experiments. After 20 minutes the hearts were exposed to 100 nM isoproterenol for 5 minutes followed by 15 minutes global ischemia which was achieved by turning off the perfusion pump. After ischemia, hearts were reperfused at a constant flow rate for 50 minutes. This flow rate was equivalent to the rate used before ischemia to maintain 58 mmHg.
To assess ischemic damage, the change in left ventricular diastolic pressure was continually monitored using a fluid filled latex balloon inserted into the left ventricle through the left atrium. The diastolic pressure was initially adjusted to 5 mmHg. The pressure signals were recorded with a Grass Polygraph.
The release of creatine kinase (CK) enzyme activity from the hearts was also measured as a marker of cardiac damage. Fractions of perfusate were collected before ischemia and every 5 minutes during reperfusion. CK enzyme activity released from the hearts was determined in the perfusate fractions using CK reagent as recommended by the supplier (Sigma Diagnostics, St. Louis, Mo.).

Setting [6] is: 1 uM, isolated rat heart, following ischemia-reperfusion.

`C[C@]12CC[C@@H]3c4ccc(O)cc4CC[C@H]3[C@@H]1CC[C@@H]2O` [17β-estradiol]: the “protection in similar myocardial ischemia-reperfusion models” value in series [1] was “protective”.

`CC1c2cc(F)ccc2-c2ccccc2N1S(=O)(=O)c1ccc(O)cc1` (stereo not shown) [Example 3, 4-[(8-Fluoro-6-methylphenanthridin-5(6H)-yl)sulfonyl]phenol] came in with a melting point of 188 °C. In addition, the infarct size in series [2] (1 mg/kg iv 5 minutes before reperfusion, 30 minutes ischemia, 2 hour reperfusion, Mean±SEM, vehicle 54.6±3.2% / 54.4±4.7%) was 32.6±5.2%. In series [2] (1 mg/kg iv, ovariectomized female rats), the “effect on ischemia/reperfusion-induced myocardial infarction compared with vehicle” value was “significantly less myocardial infarction; also recorded: cardioprotective activity”. For the same compound, in series [3], the “activity in the uterus or breast” value was “no activity”. Besides, the “size of the area at risk relative to the area of the left ventricle” value in series [4] (1 mg/kg IV 30 minutes before induction of ischemia) is given as “did not have an effect”. Besides, the “effect on infarct size in comparison to vehicle” value in series [4] (1 mg/kg IV 30 minutes before induction of ischemia, rabbit) was “significantly reduced infarct size; also recorded: cardioprotective activity”. In addition, the “infarct size (ischemic area relative to the area at risk)” value in series [4] (1 mg/kg IV 30 minutes before ischemia, 30 minutes ischemia, 4 hours reperfusion, vehicle 59%) is listed as 39%. In addition, in series [5] (setting [6]), the “effect on increase in left ventricular diastolic pressure in comparison to vehicle” value is “significantly attenuated; also recorded: cardioprotective activity” and the “effect on left ventricular developed pressure in comparison to vehicle” value was “significantly attenuated; also recorded: cardioprotective activity”. Moreover, the “release of creatine kinase (CK) activity from hearts following ischemia” value in series [5] (1 uM, perfusate during reperfusion phase, versus vehicle) was “significantly reduced; also recorded: significant decreases; also recorded: cardioprotective activity”. Moreover, the “increase in left ventricular diastolic pressure after ischemia-reperfusion” value in series [5] (luM of compound, 15 minutes global ischemia, 50 minutes reperfusion, vehicle 29 mmHg) was 11 mmHg.

Compound `COc1cc(OC)cc(N2CCN(C(=O)[C@](C)(C#N)[C@H](c3ccccc3OC)c3cccc4ccccc34)CC2)c1` [Example 4, (S)-3-[4-(3,5-dimethoxyphenyl)piperazin-1-yl]-2-[(S)-(2-methoxyphenyl)(1-naphthyl)methyl]-2-methyl-3-oxopropanenitrile] gave a melting point of 186 to 188 °C.
